Assays:
[1] = tested on: L-DOPA-induced dyskinesia in a rat model of Parkinson's disease; assay: L-DOPA-induced dyskinesia in a rat model of Parkinson's disease (6-hydroxydopamine lesion), dyskinesia score; format: in vivo
[2] = tested on: dyskinesia; details: WO00/003715; cited from earlier work

Structure (SMILES)	effect on L-DOPA-induced dyskinesia (dyskinesia score vs control score) ([1]; 10 μg/kg subcutaneous, simultaneously with L-DOPA 20 mg/kg oral, FIG. 1)	effect on L-DOPA-induced dyskinesia (dyskinesia score vs control score) ([1]; 10 mg/kg subcutaneous, with L-DOPA 20 mg/kg oral, FIG. 2, FIG. 3, FIG. 4)	effect on L-DOPA-induced dyskinesia (dyskinesia score vs control score) ([1]; 30 mg/kg subcutaneous, with L-DOPA 20 mg/kg oral, FIG. 4)	effect on dyskinesia [2]
CN(C(=O)/C=C/c1ccoc1)[C@@H]1CC[C@@]2(O)[C@H]3Cc4ccc(O)c5c4[C@@]2(CCN3CC2CC2)[C@H]1O5.Cl [Compound 1, (−)-17-(cyclopropylmethyl)-3,14β-dihydroxy-4,5α-epoxy-6β-[N-methyl-trans-3-(3-furyl)acrylamido]morphinan hydrochloride]	significantly suppressed dyskinesia	–	–	–
COC(=O)/C=C/C(=O)N[C@@H]1CC[C@@]2(O)[C@H]3Cc4ccc(O)c5c4[C@@]2(CCN3CC2CC2)[C@H]1O5 [β-funaltrexamine]	–	did not influence L-DOPA-induced dyskinesia at all	did not influence L-DOPA-induced dyskinesia at all	suppresses dyskinesia

— patent US8796301B2, “Therapeutic or prophylactic agent for dyskinesia” (Toray Industries, Inc., priority 2007, dated 2014)
